Data reported in the OligoGym collection.
After the bases stand the sugars from the 5' end (letter, count) and the backbone: PS all phosphorothioate, else s phosphorothioate and o phosphodiester by linkage. Methylation of C is not given here. e = 2'-O-(2-methoxyethyl) (MOE); k = constrained ethyl (cEt); d = 2'-deoxy (DNA); m = 2'-O-methyl

Biological target: HSD17B13
Settings: ASO, HepaRG

Sequence | target mRNA inhibition (1 µM) | further results
AGGGAGACCATGCTGC (sugars k3 d10 k3, PS) | 79% | target mRNA inhibition (0.02 µM): 10%; target mRNA inhibition (0.078 µM): 28%; target mRNA inhibition (0.313 µM): 52%; target mRNA inhibition (1.25 µM): 59%; target mRNA inhibition (5 µM): 79%
AGGGTCCACTTTTGGT (sugars k3 d10 k3, PS) | 11% | –
AGGTAGCTTTTGTCCA (sugars k3 d9 k3 e1, PS) | 58% | –
AGGTAGCTTTTGTCCA (sugars k3 d10 k3, PS) | 56% | –
AGGTAGCTTTTGTCCA (sugars kkdddddddddkekek, PS) | 26% | –
AGTAATTCTAAACTAG (sugars k3 d10 k3, PS) | 31% | –
AGTACCAAGACACTAA (sugars k3 d10 k3, PS) | 66% | –
AGTAGTGTAAGCTGAG (sugars k3 d9 k3 e1, PS) | 71% | –
AGTCGGTCACCTTTCA (sugars k3 d1 m1 d8 k3, PS) | 61% | –
AGTCGGTCACCTTTCA (sugars kkdddddddddkekek, PS) | 55% | –
AGTCTGCCTGCCTATT (sugars k3 d10 k3, PS) | 47% | –
AGTCTTAAACCTTCCC (sugars kkdddddddddkekek, PS) | 43% | –
AGTGCATCTTAAGATA (sugars k3 d1 m1 d8 k3, PS) | 17% | –
AGTGCCAAACCAATGT (sugars k3 d9 k3 e1, PS) | 60% | –
AGTGCCAAACCAATGT (sugars kkdddddddddkekek, PS) | 71% | target mRNA inhibition (0.02 µM): 13%; target mRNA inhibition (0.078 µM): 2%; target mRNA inhibition (0.313 µM): 40%; target mRNA inhibition (1.25 µM): 61%; target mRNA inhibition (5 µM): 83%
AGTGCTAAGTAGTAAT (sugars k3 d10 k3, PS) | 71% | –
AGTTAGAATAGTCTTC (sugars k3 d10 k3, PS) | 67% | –
AGTTAGCAGCTAAAAT (sugars k3 d10 k3, PS) | 33% | –
AGTTAGTATAGTTATC (sugars k3 d9 k3 e1, PS) | 47% | –

Sequence | target mRNA inhibition (1 µM) | further results
AGTTAGTATAGTTATC (sugars k3 d10 k3, PS) | 74% | target mRNA inhibition (0.02 µM): 35%; target mRNA inhibition (0.078 µM): 35%; target mRNA inhibition (0.313 µM): 60%; target mRNA inhibition (1.25 µM): 68%; target mRNA inhibition (5 µM): 84%
AGTTATTAGAAGTCAG (sugars k3 d9 k3 e1, PS) | 56% | –
AGTTTCCTCCACACCG (sugars k3 d10 k3, PS) | 28% | –
AGTTTTCACCTCAGGT (sugars k3 d10 k3, PS) | 82% | –
AGTTTTCGGCACTCAG (sugars k3 d10 k3, PS) | 16% | –
ATAACCATAGGACATG (sugars k3 d10 k3, PS) | 70% | target mRNA inhibition (0.02 µM): 37%; target mRNA inhibition (0.078 µM): 38%; target mRNA inhibition (0.313 µM): 58%; target mRNA inhibition (1.25 µM): 84%; target mRNA inhibition (5 µM): 92%
ATAACTCTATTGATTG (sugars k3 d10 k3, PS) | 39% | –
ATAAGAGATGAGTAGG (sugars k3 d10 k3, PS) | 56% | –
ATAATACATTAGCAAG (sugars k3 d10 k3, PS) | 7% | –
ATAATCTTGTGCTTGG (sugars k3 d10 k3, PS) | 36% | –
ATAATTACAACCTGGT (sugars k3 d10 k3, PS) | 44% | –
ATACATACCACTCTTC (sugars k3 d10 k3, PS) | 18% | –
ATACATTAGCAAGCTA (sugars k3 d1 m1 d8 k3, PS) | 36% | –
ATACATTAGCAAGCTA (sugars k3 d10 k3, PS) | 69% | –
ATACGCATGCGCAGTG (sugars k3 d10 k3, PS) | 38% | –
ATACTGAAATTGATAC (sugars k3 d10 k3, PS) | 11% | –
ATAGAACTAGAACTCC (sugars k3 d10 k3, PS) | 22% | –
ATAGAGTCGGTCACCT (sugars kkdddddddddkekek, PS) | 56% | –
